Data from paper PMC7899551, “Phase 1 study of Z-endoxifen in patients with advanced gynecologic, desmoid, and hormone receptor-positive solid tumors” (Oncotarget, 2021).
Read-outs that look alike come from different tables or passages of the source.

Assay: Plasma pharmacokinetics of Z-endoxifen (HPLC assay, non-compartmental analysis)
Assay type: in vivo, human
Settings: human, plasma, po
Experimental: This was an open-label trial of Z-endoxifen in patients with advanced solid tumors (https://clinicaltrials.gov/ identifier: NCT01273168). Z-endoxifen-HCl was supplied by the Pharmaceutical Management Branch, National Cancer Institute, as 20 and 40 mg capsules; agent was administered orally once daily on a continuous schedule in 28-day cycles with a starting dose of 20 mg/day taken either 1 hour before or 2 hours after meals. Dose escalation followed a traditional 3+3 design in which patients were dose-escalated to the next dose level (DL) in cohorts of 3 patients until dose-limiting toxicity (DLT) was observed. DLT was defined as an adverse event that occurred during cycle 1, was thought to be related to study drug administration, and met one of the following criteria: grade ≥ 3 non-hematologic toxicities (except diarrhea, nausea and vomiting, alopecia, rising creatinine or electrolyte toxicities that resolved within 24 hours, or intolerable estrogen withdrawal symptoms) or grade ≥ 3 hematologic toxicities (except neutropenia lasting less than 5 days, lymphopenia, or anemia). Eight dose levels (DL1-8) were examined: 20, 40, 60, 100, 140, 200, 280, and 360 mg, respectively. Two patients at DL8 received the free base form of Z-endoxifen on day 1 rather than the hydrochloride salt to assess the pharmacokinetics of that formulation.
A 3-mL blood sample was collected in a K2 EDTA tube on day 1 of cycle 1 before drug administration and at the following times post-first dose: 0.5, 1, 2, 3, 4, 6, 8, and 24 hours. Samples were collected at the same time points on day 28 of cycle 1 for DL1-6 until a protocol amendment eliminated the requirement for these samples at the higher dose levels. Samples were wrapped in aluminum foil after collection to protect from light exposure. A 10-mL aliquot of urine was collected before agent administration on cycle 1 day 1, for 24 hours after dosing on day 1, and before drug administration on cycle 2 day 1; samples were refrigerated prior to analysis.
Plasma and urine concentrations of Z- and E-endoxifen were measured using a validated, post-column fluorescence derivatization HPLC assay. Non-compartmental pharmacokinetic parameters were calculated using WinNonlin version 7.0 (Pharsight Corp., Mountainview, CA, USA). A 2 μM Cmax target was established for day 28 plasma concentration. The amount of Z-endoxifen excreted in urine was measured over a 24-hour collection period.

Compound: CC/C(=C(\c1ccc(O)cc1)c1ccc(OCCNC)cc1)c1ccccc1 [Z-endoxifen]
- Cmax (20 mg/day, DL1 20 mg/day oral, day 28, mean, read-out: Cmax, Mean): 286 ng/mL
- Tmax (20 mg/day, DL1 20 mg/day oral, day 28, mean, read-out: Tmax, Mean): 0.7 h
- AUC(0-t) (40 mg, DL2 40 mg oral, day 1, individual patients, read-out: AUC(0-24h)): 1290 ng·h/mL
- Cmax (40 mg, DL2 40 mg oral, day 1, individual patients, read-out: Cmax): 83.6 ng/mL
- AUC(0-t) (40 mg, DL2 40 mg oral, day 1, mean, read-out: AUC(0-24h), Mean): 1650 ng·h/mL
- concentration at 24 h (40 mg, DL2 40 mg oral, day 1, mean, read-out: C24h, Mean): 52.5 ng/mL
- Cmax (40 mg, DL2 40 mg oral, day 1, mean, read-out: Cmax, Mean): 112 ng/mL
- AUC(0-t) (40 mg/day, DL2 40 mg/day oral, day 28, individual patients, read-out: AUC(0-24h)): 5570 ng·h/mL
- half-life (40 mg/day, DL2 40 mg/day oral, day 28, individual patients, read-out: Adjusted Half-Life (converted)): 39.3 h
- concentration at 24 h (40 mg/day, DL2 40 mg/day oral, day 28, individual patients, read-out: C24h): 136 ng/mL
- Cmax (40 mg/day, DL2 40 mg/day oral, day 28, individual patients, read-out: Cmax): 321 ng/mL
- AUC(0-t) (40 mg/day, DL2 40 mg/day oral, day 28, mean, read-out: AUC(0-24h), Mean): 4760 ng·h/mL
- concentration at 24 h (40 mg/day, DL2 40 mg/day oral, day 28, mean, read-out: C24h, Mean): 147 ng/mL
- Cmax (40 mg/day, DL2 40 mg/day oral, day 28, mean, read-out: Cmax, Mean): 258 ng/mL
- Tmax (40 mg/day, DL2 40 mg/day oral, day 28, mean, read-out: Tmax, Mean): 3.3 h
- AUC(0-t) (60 mg, DL3 60 mg oral, day 1, individual patients, read-out: AUC(0-24h)): 1620 ng·h/mL
- concentration at 24 h (60 mg, DL3 60 mg oral, day 1, individual patients, read-out: C24h): 89.7 ng/mL
- Cmax (60 mg, DL3 60 mg oral, day 1, individual patients, read-out: Cmax): 89.7 ng/mL
- AUC(0-t) (60 mg, DL3 60 mg oral, day 1, mean, read-out: AUC(0-24h), Mean): 2140 ng·h/mL
- concentration at 24 h (60 mg, DL3 60 mg oral, day 1, mean, read-out: C24h, Mean): 82.7 ng/mL
- Cmax (60 mg, DL3 60 mg oral, day 1, mean, read-out: Cmax, Mean): 122 ng/mL
- Tmax (60 mg, DL3 60 mg oral, day 1, mean, read-out: Tmax, Mean): 12 h
- AUC(0-t) (60 mg/day, DL3 60 mg/day oral, day 28, mean, read-out: AUC(0-24h), Mean): 8080 ng·h/mL
- concentration at 24 h (60 mg/day, DL3 60 mg/day oral, day 28, mean, read-out: C24h, Mean): 345 ng/mL
- Cmax (60 mg/day, DL3 60 mg/day oral, day 28, mean, read-out: Cmax, Mean): 417 ng/mL
- Tmax (60 mg/day, DL3 60 mg/day oral, day 28, mean, read-out: Tmax, Mean): 10.8 h
- AUC(0-t) (100 mg, DL4 100 mg oral, day 1, individual patients, read-out: AUC(0-24h)): 4640 ng·h/mL
- concentration at 24 h (100 mg, DL4 100 mg oral, day 1, individual patients, read-out: C24h): 133 ng/mL
- Cmax (100 mg, DL4 100 mg oral, day 1, individual patients, read-out: Cmax): 264 ng/mL
- Tmax (100 mg, DL4 100 mg oral, day 1, individual patients, read-out: Tmax): 1 h
- AUC(0-t) (100 mg, DL4 100 mg oral, day 1, mean, read-out: AUC(0-24h), Mean): 5000 ng·h/mL
- concentration at 24 h (100 mg, DL4 100 mg oral, day 1, mean, read-out: C24h, Mean): 155 ng/mL
- Cmax (100 mg, DL4 100 mg oral, day 1, mean, read-out: Cmax, Mean): 296 ng/mL
- Tmax (100 mg, DL4 100 mg oral, day 1, mean, read-out: Tmax, Mean): 4.3 h
- AUC(0-t) (100 mg/day, DL4 100 mg/day oral, day 28, individual patients, read-out: AUC(0-24h)): 13300 ng·h/mL
- half-life (100 mg/day, DL4 100 mg/day oral, day 28, individual patients, read-out: Adjusted Half-Life (converted)): 36.8 h
- concentration at 24 h (100 mg/day, DL4 100 mg/day oral, day 28, individual patients, read-out: C24h): 428 ng/mL
- Cmax (100 mg/day, DL4 100 mg/day oral, day 28, individual patients, read-out: Cmax): 1300 ng/mL
- Tmax (100 mg/day, DL4 100 mg/day oral, day 28, individual patients, read-out: Tmax): 2 h
- AUC(0-t) (100 mg/day, DL4 100 mg/day oral, day 28, mean (one patient), read-out: AUC(0-24h), Mean): 13300 ng·h/mL
- half-life (100 mg/day, DL4 100 mg/day oral, day 28, mean (one patient), read-out: Adjusted Half-Life, Mean (converted)): 36.8 h
- concentration at 24 h (100 mg/day, DL4 100 mg/day oral, day 28, mean (one patient), read-out: C24h, Mean): 428 ng/mL
- Cmax (100 mg/day, DL4 100 mg/day oral, day 28, mean, read-out: Cmax, Mean): 1010 ng/mL
- Tmax (140 mg, DL5 140 mg oral, day 1, individual patients, read-out: Tmax): 3 h
- AUC(0-t) (140 mg, DL5 140 mg oral, day 1, mean, read-out: AUC(0-24h), Mean): 9760 ng·h/mL
- concentration at 24 h (140 mg, DL5 140 mg oral, day 1, mean, read-out: C24h, Mean): 311 ng/mL
- Cmax (140 mg, DL5 140 mg oral, day 1, mean, read-out: Cmax, Mean): 610 ng/mL
- Tmax (140 mg, DL5 140 mg oral, day 1, mean, read-out: Tmax, Mean): 4.3 h
- AUC(0-t) (140 mg/day, DL5 140 mg/day oral, day 28, individual patients, read-out: AUC(0-24h)): 18200 ng·h/mL
- half-life (140 mg/day, DL5 140 mg/day oral, day 28, individual patients, read-out: Adjusted Half-Life (converted)): 33.1 h
- concentration at 24 h (140 mg/day, DL5 140 mg/day oral, day 28, individual patients, read-out: C24h): 598 ng/mL
- Cmax (140 mg/day, DL5 140 mg/day oral, day 28, individual patients, read-out: Cmax): 973 ng/mL
- Tmax (140 mg/day, DL5 140 mg/day oral, day 28, individual patients, read-out: Tmax): 1 h
- AUC(0-t) (140 mg/day, DL5 140 mg/day oral, day 28, mean, read-out: AUC(0-24h), Mean): 17400 ng·h/mL
- half-life (140 mg/day, DL5 140 mg/day oral, day 28, mean, read-out: Adjusted Half-Life, Mean (converted)): 30.6 h
- concentration at 24 h (140 mg/day, DL5 140 mg/day oral, day 28, mean, read-out: C24h, Mean): 563 ng/mL
- Cmax (140 mg/day, DL5 140 mg/day oral, day 28, mean, read-out: Cmax, Mean): 1110 ng/mL
- AUC(0-t) (200 mg, DL6 200 mg oral, day 1, individual patients, read-out: AUC(0-24h)): 6340 ng·h/mL
- concentration at 24 h (200 mg, DL6 200 mg oral, day 1, individual patients, read-out: C24h): 279 ng/mL
- Tmax (200 mg, DL6 200 mg oral, day 1, individual patients, read-out: Tmax): 2 h
- AUC(0-t) (200 mg, DL6 200 mg oral, day 1, mean, read-out: AUC(0-24h), Mean): 9220 ng·h/mL
- concentration at 24 h (200 mg, DL6 200 mg oral, day 1, mean, read-out: C24h, Mean): 336 ng/mL
- Cmax (200 mg, DL6 200 mg oral, day 1, mean, read-out: Cmax, Mean): 517 ng/mL
- half-life (200 mg/day, DL6 200 mg/day oral, day 28, individual patients, read-out: Adjusted Half-Life (converted)): 34.8 h
- AUC(0-t) (200 mg/day, DL6 200 mg/day oral, day 28, mean, read-out: AUC(0-24h), Mean): 30800 ng·h/mL
- concentration at 24 h (200 mg/day, DL6 200 mg/day oral, day 28, mean, read-out: C24h, Mean): 1070 ng/mL
- Cmax (200 mg/day, DL6 200 mg/day oral, day 28, mean, read-out: Cmax, Mean): 1640 ng/mL
- Cmax (280 mg, DL7 280 mg oral, day 1, individual patients, read-out: Cmax): 888 ng/mL
- Tmax (280 mg, DL7 280 mg oral, day 1, individual patients, read-out: Tmax): 3 h
- AUC(0-t) (280 mg, DL7 280 mg oral, day 1, mean, read-out: AUC(0-24h), Mean): 15000 ng·h/mL
- concentration at 24 h (280 mg, DL7 280 mg oral, day 1, mean, read-out: C24h, Mean): 468 ng/mL
- Cmax (280 mg, DL7 280 mg oral, day 1, mean, read-out: Cmax, Mean): 930 ng/mL
- Tmax (360 mg, DL8 360 mg oral, day 1, individual patients, read-out: Tmax): 2 h
- AUC(0-t) (360 mg, DL8 360 mg oral, day 1, mean (excluding patients 35 and 36), read-out: AUC(0-24h), Mean): 20500 ng·h/mL
- concentration at 24 h (360 mg, DL8 360 mg oral, day 1, mean (excluding patients 35 and 36), read-out: C24h, Mean): 676 ng/mL
- Cmax (360 mg, DL8 360 mg oral, day 1, mean (excluding patients 35 and 36), read-out: Cmax, Mean): 1310 ng/mL
- Tmax (360 mg, DL8 360 mg oral, day 1, mean (excluding patients 35 and 36), read-out: Tmax, Mean): 3.9 h
- AUC(0-t) (360 mg, HCl salt, 360 mg oral, day 2 (after free base on day 1), mean of patients 35 and 36, read-out: AUC(0–24 h), Mean): 41600 ng·h/mL
- concentration at 24 h (360 mg, HCl salt, 360 mg oral, day 2 (after free base on day 1), mean of patients 35 and 36, read-out: C24 h, Mean): 1470 ng/mL
- concentration at 24 h (360 mg, HCl salt, 360 mg oral, day 2 (after free base on day 1), patients 35 and 36 individually, read-out: C24 h): 827 ng/mL
